These results are taken from PMC8203924, “Development of a Potent Antimicrobial Peptide With Photodynamic Activity” (Frontiers in Microbiology, 2021).

Converted amounts (≈) assume the structure as drawn. Where two headings read alike, the source gives them in different places. Peptide text beside a SMILES is read from it. * marks the point of attachment. X1 = O=C(c1ccc2c3nc4nc(nc5[nH]c(nc6nc(nc([nH]3)c2c1)-c1ccccc1-6)c1ccccc51)-c1ccccc1-4)* Where only a bound is given, the exact number is not on record here.

Data set [1] concerns S. aureus (ATCC 6538). The format is cell-based, Staphylococcus aureus. Conditions: ATCC 6538, 20 h. As to the method: (§1) E. coli (ATCC 8739), S. aureus (ATCC 6538), or MRSA (ATCC 33591) were grown in LB culture medium at 37°C under aerobic conditions overnight (8–12 h) before use.
(§2) Bactericidal kinetics assay was also determined.

The test system of data set [2] is MRSA (ATCC 33591). It counts as cell-based, methicillin-resistant S. aureus. The settings on record: ATCC 33591, 20 h. As to the method:
as §1, §2

For data set [3], the system named is E. coli (ATCC 8739). It counts as cell-based, Escherichia coli. The settings on record: ATCC 8739, 20 h. The procedure: as §1, §2
Data set [4] has as its system S. aureus (ATCC 6538). Conditions: 2 μM. The procedure:
as §1
(§3) Photo-assisted antimicrobial activity assays of the compound peptides against ATCC standard strains were carried out by colony counting method. The agar plates with only bacterial suspension were used as negative control. The peptide and bacterial suspension were incubated together in 96-well microplates first. Under the same conditions, for comparison, the other groups were set without light. After incubation for 40 min at room temperature, aliquots of 100 μl were taken out of the solutions and placed on agar plates at serial dilutions, then incubated at 37°C for 18–24 h. Numbers of colonies were counted, and the antimicrobial rate (R) was calculated: R = (B-A)/B × 100%. Here, A is the bacterial colony number on the agar plates containing various concentrations of the peptides, and B is the colony number for negative control.

The subject of data set [5] is E. coli (ATCC 8739). The settings on record: 2 μM. The procedure: as §1, §3
Data set [6] can be described thus: in vitro. Conditions: human, human embryonic lung fibroblast (HELF) cells.
Protocol: The culture medium was used as control. The cells were washed with PBS, then were divided into two groups, and the light group was exposed to 12 J/cm^2 of 680 nm light illumination. After another 12-h incubation, the culture medium was refreshed and 3-(4,5-dimethylthiazol-2-yl)-2,5-diphenyltetrazolium bromide (MTT) was added. After 4-h incubation at 37°C, the absorbance at 490 nm was measured on a multi-mode microplate reader (BioTek Synergy 4). The inhibition rate of cell growth was calculated by the following equation:
Cell viability%=Mean absorbance value of treatment group/Mean absorbance value of control×100%
In data set [7] the test system is S. aureus.
Description: Kunming mice (4-week-old, 25 ± 2 g, purchased from Shanghai SLAC Laboratory Animal Co. Ltd., Shanghai, China) were maintained and handled in accordance with the recommendations of the Institutional Animal Care And Use Committee (IACUC). […] Each group had six mice. All groups of mice were allowed free access to water and food throughout the experimental process. In each group, excisional wounds (10 mm × 10 mm) was made on the dorsal surface of the mouse by disinfected scissors to a depth of 2.0 mm. The bottom of the wound was panniculus carnosus with no visible bleeding. An aliquot (50 μl) of mid-log phase S. aureus (10^8 CFU/ml) was then inoculated into each wound of mice. […] The area of the wounds and body weight of mice were measured each day.
For data set [8] the following is noted: mouse, in vivo, iv. As to the method: The mice were sacrificed at 2, 4, 8, 12, 24, 36, 48, and 72 h post-injection, and their primary organs (liver, kidneys, heart, spleen, lung, stomach, intestines) or muscles were collected postmortem. Meanwhile, their blood was collected through enucleation of eyeballs. These samples were then washed with saline and imaged on the three-dimension FMT 2500TM LX (PerkinElmer, Waltham, MA, United States) using the same acquisition settings as the in vivo imaging to quantitate the peptide average concentrations in the samples.

Data set [9] deals with S. aureus. The settings on record: 1-MIC, 12 h, OD600 hourly, 37°C.
Protocol: (§6) Bactericidal kinetics assay was also determined. Different final concentrations (0, 1/8-, 1/4-, 1/2-, 1-MIC) of the peptides were added to the bioluminescent S. aureus suspension (10^3 CFU/ml). The bacteria were incubated at 37°C and 150 rpm. An aliquot of 100 μl of the suspension was taken out to measure the absorption at 600 nm on microplate reader once an hour for up to 12 h.
Data set [10] deals with E. coli. Conditions: 1-MIC, 12 h, OD600 hourly, 37°C.
Protocol: as §6
Data set [11] deals with bioluminescent S. aureus. The format is cell-based, Staphylococcus aureus. The settings on record: without light; for higher efficacy than compound 1 or 2: on both bacterial strains (bioluminescent S. aureus and E. coli); for IC50: bioluminescent S. aureus, 10^6 CFU/ml in PBS, peptides in PBST, luminescence monitored 1 h, triplicate, mean ± SD, read-out: IC50 against S. aureus. From the text: The side chain-protected peptides G3(RW)3, G3(RW)3K5, and G3K5(RW)3 on Wang resin were obtained commercially (GL Biochem Ltd., Shanghai). Beta-carboxy phthalocyanine zinc was developed by us by a method previously reported ([Chen et al., 2006]). Beta-carboxy phthalocyanine (β-PcCOOH) was purified on a silica column with N,N-dimethylformamide (DMF):acetone (3:1) as the second band. All the chemical reagents were analytical grade and used without further purification. Distilled water was used throughout the experiments. E. coli (ATCC 8739), S. aureus (ATCC 6538), and MRSA (ATCC 33591) were acquired from ATCC. Bioluminescent strains of E. coli DH5α were constructed by transformation of plasmid pAKlux2.1, which contained a complete bacterial luciferase operon as described ([Ullah et al., 2018]; [Chen et al., 2019]), and S. aureus Xen29 (NCTC8532) containing a stable copy of the modified Photorhabdus luminescens luxABCDE operon was purchased from Shanghai Biofeng Company.
(§4) Bioluminescent bacteria were grown in Luria-Bertani (LB) culture medium at 37°C under aerobic conditions overnight 8–12 diluted 100 times to 10^6 colony-forming units (CFU)/ml in phosphate buffered saline (PBS) before incubating with the peptides. The peptide or new compounds were first dissolved in PBST (PBS with 0.05% Tween 20) to prepare 1-mM stock solutions, and the solutions were then further diluted up to 100 μM with PBST. The bacterial suspensions were then incubated in 96-well plates with the compound peptides. The luminescence was monitored for 1 h to measure the bacterial viability. The percentage of survived bacteria was determined from the luminescence intensities of the treated group divided by the luminescence signal of the controls.

Data set [12] deals with MRSA (ATCC 33591). Put plainly: Photo-assisted antimicrobial activity by colony counting method. It counts as cell-based, methicillin-resistant S. aureus. The settings on record: 2 μM, 6 min illumination, 12 J/cm^2, 33.33 mW/cm^2, colony counting, start 10^6 CFU/ml. As to the method:
as §1, §3

Data set [13] deals with bioluminescent S. aureus. It counts as cell-based, Staphylococcus aureus. The settings on record: for IC50: bioluminescent S. aureus, 680 nm LED 6 min, 12 J/cm^2, 33.33 mW/cm^2, after 10 min incubation, triplicate, mean ± SD, read-out: IC50 against S. aureus upon illumination. The procedure: as §4
(§5) For photo-assisted antimicrobial activity measurements against bioluminescent bacteria, we used a procedure similar to as above, but with illumination using LM-LED light (680 nm) for 6 min (light dose of 12 J/cm^2, 33.33 mW/cm^2) after 10 min incubation of the bacterial suspensions and the compound peptides.

The conditions of data set [14]: mouse, in vivo, iv. The source holds these as a separate data set.
Protocol: The blood of mice was diluted 10 times with DMF, immediately after collection, and then centrifuged to get supernatant for further determination. The supernatant was measured by fluorescence spectrophotometer F-4600 (HITACHI, Tokyo, Japan). The fluorescence intensity was recorded. The excitation and emission wavelengths were set at 610 and 680 nm. […] The plasma half-life (t1/2) can be calculated by the following formula:
Here, k represents the slope of fluorescence intensity-log (concentration) regression equation.
Data set [15] deals with bioluminescent E. coli. In words: Photo-assisted antimicrobial activity against bioluminescent bacteria. It counts as cell-based, Escherichia coli. The settings on record: 680 nm LED 6 min, 12 J/cm^2, 33.33 mW/cm^2, after 10 min incubation, triplicate, mean ± SD, read-out: IC50 against E. coli upon illumination. The procedure: as §4, §5
The test system of data set [16] is bioluminescent E. coli. It counts as cell-based, Escherichia coli. The settings on record: 10^6 CFU/ml in PBS, peptides in PBST, luminescence monitored 1 h, without light, triplicate, mean ± SD, read-out: IC50 against E. coli. An excerpt:
The side chain-protected peptides G3(RW)3, G3(RW)3K5, and G3K5(RW)3 on Wang resin were obtained commercially (GL Biochem Ltd., Shanghai). Beta-carboxy phthalocyanine zinc was developed by us by a method previously reported ([Chen et al., 2006]). Beta-carboxy phthalocyanine (β-PcCOOH) was purified on a silica column with N,N-dimethylformamide (DMF):acetone (3:1) as the second band. All the chemical reagents were analytical grade and used without further purification. Distilled water was used throughout the experiments. E. coli (ATCC 8739), S. aureus (ATCC 6538), and MRSA (ATCC 33591) were acquired from ATCC. […]
Bioluminescent bacteria were grown in Luria-Bertani (LB) culture medium at 37°C under aerobic conditions overnight 8–12 diluted 100 times to 10^6 colony-forming units (CFU)/ml in phosphate buffered saline (PBS) before incubating with the peptides. […] The luminescence was monitored for 1 h to measure the bacterial viability. The percentage of survived bacteria was determined from the luminescence intensities of the treated group divided by the luminescence signal of the controls.

[17] abbreviates: 36-s exposure or 0.60 J/cm^2, 33.33 mW/cm^2.
The mark [18] stands for this setting: 6 min illumination, 12 J/cm^2, 33.33 mW/cm^2, colony counting.
The mark [19] stands for this setting: 6 min illumination, 12 J/cm^2, 33.33 mW/cm^2, colony counting, start 10^6 CFU/ml.

On to `N=C(N)NCCC[C@H](NC(=O)CNC(=O)CNC(=O)CNC(=O)c1ccc2c3nc4nc(nc5[nH]c(nc6nc(nc([nH]3)c2c1)-c1ccccc1-6)c1ccccc51)-c1ccccc1-4)C(=O)N[C@@H](Cc1c[nH]c2ccccc12)C(=O)N[C@@H](CCCNC(=N)N)C(=O)N[C@@H](Cc1c[nH]c2ccccc12)C(=O)N[C@@H](CCCNC(=N)N)C(=O)N[C@@H](Cc1c[nH]c2ccccc12)C(=O)O` [Compound 3, PcG3(RW)3] (X1-GGGRWRWRW-OH), for which the “MIC against S. aureus” value in data set [1] turned out to be 12.0 µM (≈ 21.1 µg/mL). For the same compound, the “MIC against MRSA” value in data set [2] amounted to 24.0 µM (≈ 42.2 µg/mL). The “MIC against E. coli” value in data set [3] was 48.0 µM (≈ 84.3 µg/mL).

As usually defined, the viability is a per cent measure of how many cells are alive, often set against a control. Read a high viability as better survival. Take `N=C(N)NCCC[C@H](NC(=O)[C@H](Cc1c[nH]c2ccccc12)NC(=O)[C@H](CCCNC(=N)N)NC(=O)[C@H](Cc1c[nH]c2ccccc12)NC(=O)[C@H](CCCNC(=N)N)NC(=O)[C@H](CCCCN)NC(=O)[C@H](CCCCN)NC(=O)[C@H](CCCCN)NC(=O)[C@H](CCCCN)NC(=O)[C@H](CCCCN)NC(=O)CNC(=O)CNC(=O)CNC(=O)c1ccc2c3nc4nc(nc5[nH]c(nc6nc(nc([nH]3)c2c1)-c1ccccc1-6)c1ccccc51)-c1ccccc1-4)C(=O)N[C@@H](Cc1c[nH]c2ccccc12)C(=O)O` [Compound 4, PcG3K5(RW)3] (X1-GGGKKKKKRWRWRW-OH): the “MIC against S. aureus” value in [1] was 8.0 µM (≈ 19.2 µg/mL). For the same compound, the “MIC against MRSA” value in [2] stood at 16.1 µM (≈ 38.6 µg/mL). Also, the “elimination of S. aureus at low dose of light” value in [4] (setting [17]) is given as about 95%. Besides, the “reduction of S. aureus” value in data set [4] (setting [18]) is at most 99.999%. In [4] (setting [19]), the “log reduction of S. aureus” value was “up to 5 log”. Besides, the “elimination of E. coli at low dose of light” value in data set [5] (setting [17]) is on record as “about 80%”. In [5] (setting [18]), the “reduction of E. coli” value turned out to be 99.9%. In addition, in [5] (setting [19]), the “log reduction of E. coli” value is 3 log. This compound also gave a viability at 24 h in [6] of over 90%. Besides, the “wound recovery with one-time illumination” value in [7] (20 μM local, one-time 680-nm illumination 12.0 J/cm^2, 33.33 mW/cm^2, vs without illumination) is reported as “better wound recovery than the ones without illumination at the first 3 days after surgery”. For the same compound, in data set [7] (50 μl of 20 μM local administration, without light, n = 6 per group), the “wound healing of S. aureus infected excisional wounds” value is “promoted wound healing and prevented or alleviated the infection”. Further, the “time to be cleared out of organs” value in data set [8] is reported as at most 72 h. For the same compound, the “bacterial proliferation of S. aureus at MIC” value in data set [9] was “completely stopped”. Also, in data set [10], the “bacterial proliferation of E. coli at MIC” value was “completely stopped”. In addition, in data set [11], the “higher efficacy than compound 1 or 2” value is 2–4 times. The “log reduction of MRSA” value in [12] is given as “up to 5 log”. Besides, the “MIC against E. coli” value in data set [3] was 16.1 µM (≈ 38.6 µg/mL). Also, in [13] (red light / LED illumination vs no light, S. aureus and E. coli), the “increase of inhibitory efficacy upon illumination” value is recorded as ~ 140 fold. Besides, in data set [14], the “plasma half-life (t1/2)” value is 11.09 h.

As for `N=C(N)NCCC[C@H](NC(=O)CNC(=O)CNC(=O)CNC(=O)c1ccc2c3nc4nc(nc5[nH]c(nc6nc(nc([nH]3)c2c1)-c1ccccc1-6)c1ccccc51)-c1ccccc1-4)C(=O)N[C@@H](Cc1c[nH]c2ccccc12)C(=O)N[C@@H](CCCNC(=N)N)C(=O)N[C@@H](Cc1c[nH]c2ccccc12)C(=O)N[C@@H](CCCNC(=N)N)C(=O)N[C@@H](Cc1c[nH]c2ccccc12)C(=O)N[C@@H](CCCCN)C(=O)N[C@@H](CCCCN)C(=O)N[C@@H](CCCCN)C(=O)N[C@@H](CCCCN)C(=O)N[C@@H](CCCCN)C(=O)O` [Compound 5, PcG3(RW)3K5] (X1-GGGRWRWRWKKKKK-OH), the “MIC against S. aureus” value in data set [1] was 16.1 µM (≈ 38.6 µg/mL). Besides, the “MIC against MRSA” value in data set [2] was determined as 16.1 µM (≈ 38.6 µg/mL). For the same compound, the “higher efficacy than compound 1 or 2” value in [11] is given as 2–4 times. Moreover, the “MIC against E. coli” value in data set [3] worked out at 16.1 µM (≈ 38.6 µg/mL).

In general, IC50 refers to the concentration needed to halve the response being measured. For “H-GGGKKKKKRWRWRW-OH [Compound 1, G3K5(RW)3]”, in [1], the “MIC against S. aureus” value is 107.8 µM. Also, the “MIC against MRSA” value in data set [2] was 107.8 µM. The IC50 came to 59.2 ± 1.97 µM in data set [15], 61.8 ± 4.3 µM in [16], 45.6 ± 2.9 µM in data set [11] and 44.6 ± 4.72 µM in [13]. The “MIC against E. coli” value in data set [3] is over 215.6 µM.

“H-GGGRWRWRWKKKKK-OH [Compound 2, G3(RW)3K5]”: the “MIC against S. aureus” value in data set [1] came out at 107.8 µM. In data set [2], the “MIC against MRSA” value was 107.8 µM. Also, the IC50 in data set [15] came to 129 ± 30.3 µM; in [16], 135 ± 25.3 µM; in data set [11], 68 ± 3.2 µM; in data set [13], 71.6 ± 2.82 µM. Besides, in data set [3], the “MIC against E. coli” value was over 215.6 µM.
